How the values were obtained:
[1] = target: pregnane X receptor (PXR) (Homo sapiens, UniProt O75469); assay: Gal4 hybrid reporter gene assay PXR
Excerpt: These in vitro test systems are based on a constitutively expressed hybrid receptor composed of the ligand binding domain of the respective human nuclear receptor and the DNA binding domain of the yeast receptor Gal4. A Gal4-inducible firefly luciferase serves as reporter gene and a constitutively expressed renilla luciferase is used for normalization of transfection efficacy and internal toxicity control[18],[19]. […] The Gal4-fusion receptor plasmids pFA-CMV-hPPARα-LBD[50], pFA-CMV-hPPARγ-LBD[50], pFA-CMV-hPPARδ-LBD[50], pFA-CMV-hLXRα-LBD[51], pFA-CMV-hLXRβ-LBD[51], pFA-CMV-hRXRα-LBD[52], pFA-CMV-hRXRβ-LBD[52], pFA-CMV-hRXRγ-LBD[52], pFA-CMV-hRARα-LBD[52], pFA-CMV-hRARβ-LBD[52], pFA-CMV-hRARγ-LBD[52], pFA-CMV-hFXR-LBD[53], pFA-CMV-hVDR-LBD[52], pFA-CMV-hCAR-LBD[52] and pFA-CMV-hPXR-LBD[52] coding for the hinge region and ligand binding domain (LBD) of the canonical isoform of the respective nuclear receptor have been reported previously. pFR-Luc (Stratagene) was used as reporter plasmid and pRL-SV40 (Promega) for normalization of transfection efficiency and cell growth.
HEK293T cells were grown in DMEM high glucose, supplemented with 10% FCS, sodium pyruvate (1 mM), penicillin (100 U/mL) and streptomycin (100 μg/mL) at 37 °C and 5% CO2. […] Luminescence was measured with an Infinite M200 luminometer (Tecan Deutschland GmbH). […]

full-length PPARγ = target: T1, full-length PPARγ (Homo sapiens, UniProt P37231); assay: Full-length PPARγ reporter gene assay; assay type: cell-based
T1 construct: host or cells: HEK293T
T1 sequence (P37231 whole entry): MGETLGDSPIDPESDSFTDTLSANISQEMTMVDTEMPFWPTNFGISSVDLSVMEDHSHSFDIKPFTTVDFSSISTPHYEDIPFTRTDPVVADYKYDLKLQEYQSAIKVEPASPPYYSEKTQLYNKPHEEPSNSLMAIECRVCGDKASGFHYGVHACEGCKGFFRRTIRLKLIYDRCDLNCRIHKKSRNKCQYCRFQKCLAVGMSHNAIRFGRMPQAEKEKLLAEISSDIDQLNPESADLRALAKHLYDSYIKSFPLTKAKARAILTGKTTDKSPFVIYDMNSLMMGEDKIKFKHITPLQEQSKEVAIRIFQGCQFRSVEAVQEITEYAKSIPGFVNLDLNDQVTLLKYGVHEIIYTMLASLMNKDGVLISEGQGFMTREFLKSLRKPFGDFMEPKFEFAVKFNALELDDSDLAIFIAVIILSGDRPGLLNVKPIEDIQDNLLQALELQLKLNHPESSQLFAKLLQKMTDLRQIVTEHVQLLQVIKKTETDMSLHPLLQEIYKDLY
Description: HEK293T cells were grown in DMEM high glucose, supplemented with 10% FCS, sodium pyruvate (1 mM), penicillin (100 U/mL) and streptomycin (100 μg/mL) at 37 °C and 5% CO2. The day before transfection, HEK293T cells were seeded in 96-well plates (3·10^4 cells/well). Before transfection, medium was changed to Opti-MEM without supplements. […] 5 h after transfection, medium was changed to Opti-MEM supplemented with penicillin (100 U/mL), streptomycin (100 μg/mL), now additionally containing 0.1% DMSO and the respective test compound or 0.1% DMSO alone as untreated control. Each concentration was tested in duplicates and each experiment was repeated independently at least three times. Following overnight (12-14 h) incubation with the test compounds, cells were assayed for luciferase activity using Dual-Glo™ Luciferase Assay System (Promega) according to the manufacturer’s protocol. Luminescence was measured with an Infinite M200 luminometer (Tecan Deutschland GmbH). […] Fold activation was obtained by dividing the mean RLU of a test compound at a respective concentration by the mean RLU of untreated control.

[2] = Aqueous solubility (noted for ITC); assay type: physicochemical
Excerpt: To confirm direct modulation of PPARγ by lesinurad, we analyzed their interaction by isothermal titration calorimetry (ITC). Due to limited solubility of lesinurad, recombinant PPARγ ligand binding domain (LBD) protein was (reversely) titrated to the drug.

Sequence of pregnane X receptor (PXR) (O75469 146-433 limits assumed): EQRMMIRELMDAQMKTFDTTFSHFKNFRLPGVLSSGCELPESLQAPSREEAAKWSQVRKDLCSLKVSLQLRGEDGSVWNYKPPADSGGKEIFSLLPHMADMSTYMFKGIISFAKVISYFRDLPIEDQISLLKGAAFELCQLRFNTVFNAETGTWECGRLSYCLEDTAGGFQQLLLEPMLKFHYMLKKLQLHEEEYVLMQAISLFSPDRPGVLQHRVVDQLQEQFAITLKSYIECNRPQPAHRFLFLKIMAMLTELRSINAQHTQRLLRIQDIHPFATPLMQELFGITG

O=C(O)CSc1nnc(Br)n1-c1ccc(C2CC2)c2ccccc12 [lesinurad]
EC50 [1]: 19 ± 1 µM | PXR transactivation efficacy ([1]; vs. 1 µM SR12813): 145 ± 9% | transactivation efficacy on full-length PPARγ (full-length PPARγ; compared to reference agonists): higher transactivation efficacy than pioglitazone and rosiglitazone | EC50 (full-length PPARγ; full-length human PPARγ, HEK293T, mean ± SEM): 21 ± 2 µM | aqueous solubility [2]: limited aqueous solubility

From paper PMC6131501, “Urate transporter inhibitor lesinurad is a selective peroxisome proliferator-activated receptor gamma modulator (sPPARγM) in vitro” (Scientific Reports, 2018)
